How the values were obtained:
Assay type in all cases: cell-based
BRAF D594G = target: T1, BRAF D594G (Homo sapiens, UniProt P15056, D594G); assay: BRAF HiBiT degradation assay, C-terminal HiBiT-tagged BRAF D594G overexpressed in HCT-116 BRAF−/− cells (clone 63), Nano-Glo HiBiT Lytic assay
T1 construct: Horizon Discovery (HCT-116 BRAF−/− cells); host or cells: HCT-116 BRAF−/− cells, clone 63, lentiviral transduction
Outline: (§1)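 We quantified degradation of the C-terminally HiBiT-tagged, overexpressed mutant by lytic luminescence, normalizing to DMSO-treated cells with wild-type HCT-116 background subtracted. Dose series ran from 1 μM to 0.01 nM at 0.2% DMSO. Observed Dmax is % degraded at maximal effect.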

BRAF V600E = target: T2, BRAF V600E (Homo sapiens, UniProt P15056, V600E); assay: BRAF HiBiT degradation assay, C-terminal HiBiT-tagged BRAF V600E A375 cells (clone 1F10), Nano-Glo HiBiT Lytic assay; details: for Dmax: A-375
T2 construct: endogenous C-terminal HiBiT fusion tag on BRAF V600E allele; endogenous in cells; host or cells: A375 clone 1F10 (CRISPR-Cas9 knock-in of the HiBiT tag; parental A375 from ATCC)
Outline: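 Steps: seed HiBiT-tagged A375 clone 1F10 cells; incubate 24 h, 37 °C, 5% CO2; add compound (11 half-log points from 1 μM, 0.2% DMSO); lyse with HiBiT detection reagent plus LgBiT for 10 min; read luminescence; fit % protein remaining against concentration.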

BRAF G466V = target: T3, BRAF G466V (Homo sapiens, UniProt P15056, G466V); assay: BRAF HiBiT degradation assay, C-terminal HiBiT-tagged BRAF G466V overexpressed in HCT-116 BRAF−/− cells (clone 8), Nano-Glo HiBiT Lytic assay
T3 construct: Horizon Discovery (HCT-116 BRAF−/− cells); host or cells: HCT-116 BRAF−/− cells, clone 8, lentiviral transduction
Outline: as §1

BRAF G469A = target: T4, BRAF G469A (Homo sapiens, UniProt P15056, G469A); assay: BRAF HiBiT degradation assay, C-terminal HiBiT-tagged BRAF G469A overexpressed in HCT-116 BRAF−/− cells (clone 34), Nano-Glo HiBiT Lytic assay
T4 construct: Horizon Discovery (HCT-116 BRAF−/− cells); host or cells: HCT-116 BRAF−/− cells, clone 34, lentiviral transduction
Outline: as §1

[1] = BRAF D594G (Class 3), HCT-116 BRAF−/− cells, DC50 at 50% degradation
[2] = BRAF D594G (Class 3), HCT-116 BRAF−/− cells, observed Dmax relative to DMSO control
[3] = A375 (BRAF V600E, Class 1), DC50 at 50% degradation
[4] = A375 (BRAF V600E, Class 1), observed Dmax, % protein degraded relative to DMSO control
[5] = BRAF G466V (Class 3), HCT-116 BRAF−/− cells, DC50 at 50% degradation
[6] = BRAF G466V (Class 3), HCT-116 BRAF−/− cells, observed Dmax relative to DMSO control
[7] = BRAF G469A (Class 2), HCT-116 BRAF−/− cells, DC50 at 50% degradation
[8] = BRAF G469A (Class 2), HCT-116 BRAF−/− cells, observed Dmax relative to DMSO control
[9] = BRAF D594G, DC50 at 50%: fitted conc. at Y=50
[10] = HCT-116, BRAF D594G, percentage protein degraded at maximal compound effect relative to DMSO
[11] = A375 (BRAF V600E), DC50 at 50%: fitted conc. at Y=50
[12] = A375 (BRAF V600E), percentage protein degraded at maximal compound effect relative to DMSO
[13] = BRAF G466V, DC50 at 50%: fitted conc. at Y=50
[14] = HCT-116, BRAF G466V, percentage protein degraded at maximal compound effect relative to DMSO
[15] = Class 2, BRAF G469A, DC50 at 50%: fitted conc. at Y=50
[16] = HCT-116, Class 2, BRAF G469A, percentage protein degraded at maximal compound effect relative to DMSO

T3 sequence (P15056 whole entry G466V): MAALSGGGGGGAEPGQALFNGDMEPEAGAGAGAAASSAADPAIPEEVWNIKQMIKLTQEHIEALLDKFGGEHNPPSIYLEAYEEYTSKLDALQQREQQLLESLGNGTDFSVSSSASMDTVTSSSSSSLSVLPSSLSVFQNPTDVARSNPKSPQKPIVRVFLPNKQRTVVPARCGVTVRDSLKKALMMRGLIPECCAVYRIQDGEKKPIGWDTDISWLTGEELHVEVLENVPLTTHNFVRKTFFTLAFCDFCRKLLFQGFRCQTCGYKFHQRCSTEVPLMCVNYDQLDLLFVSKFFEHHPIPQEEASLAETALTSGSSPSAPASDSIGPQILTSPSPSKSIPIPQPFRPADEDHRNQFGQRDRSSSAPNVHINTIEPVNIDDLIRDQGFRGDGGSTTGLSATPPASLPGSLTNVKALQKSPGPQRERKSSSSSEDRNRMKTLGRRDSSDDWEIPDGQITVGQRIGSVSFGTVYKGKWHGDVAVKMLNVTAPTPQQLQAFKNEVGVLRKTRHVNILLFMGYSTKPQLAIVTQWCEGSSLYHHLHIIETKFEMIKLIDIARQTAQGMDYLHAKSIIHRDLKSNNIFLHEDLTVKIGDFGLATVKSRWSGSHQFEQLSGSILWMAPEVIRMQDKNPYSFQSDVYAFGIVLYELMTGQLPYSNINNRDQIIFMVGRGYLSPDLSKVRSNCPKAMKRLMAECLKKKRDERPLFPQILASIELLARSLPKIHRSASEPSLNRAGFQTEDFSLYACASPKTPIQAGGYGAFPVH
T4 sequence (P15056 whole entry G469A): as the sequence (P15056 whole entry G466V) above, with V466G, G469A counted along it
T2 sequence (P15056 whole entry V600E, the tested form may be a part): as the sequence (P15056 whole entry G466V) above, with V466G, V600E counted along it
T1 sequence (P15056 whole entry D594G): as the sequence (P15056 whole entry G466V) above, with V466G, D594G counted along it

Row | DC50 (BRAF D594G; [1]) | Dmax (BRAF D594G; [2]) | DC50 (BRAF V600E; [3]) | Dmax (BRAF V600E; [4]) | DC50 (BRAF G466V; [5]) | Dmax (BRAF G466V; [6]) | DC50 (BRAF G469A; [7]) | Dmax (BRAF G469A; [8]) | DC50 (BRAF D594G; [9]) | Dmax (BRAF D594G; [10]) | DC50 (BRAF V600E; [11]) | Dmax (BRAF V600E; [12]) | DC50 (BRAF G466V; [13]) | Dmax (BRAF G466V; [14]) | DC50 (BRAF G469A; [15]) | Dmax (BRAF G469A; [16]) | SMILES
1 | < 10 nM | > 70% | < 10 nM | > 70% | < 10 nM | > 70% | 10 to 50 nM | > 70% |  |  |  |  |  |  |  |  | C[C@@H]1CN(c2ccc(-n3cc(-c4cc(F)cc(NS(=O)(=O)N5CCCC5)c4F)c(-c4ccncc4)n3)c(F)c2)CCN1CC1CCN(c2ccc(C3CCC(=O)NC3=O)cn2)CC1 (mixture of isomers) [Compound 289, N-(3-(1-(4-((R)-4-((1-(5-((RS)-2,6-dioxopiperidin-3-yl)pyridin-2-yl)piperidin-4-yl)methyl)-3-methylpiperazin-1-yl)-2-fluorophenyl)-3-(pyridin-4-yl)-1H-pyrazol-4-yl)-2,5-difluorophenyl)pyrrolidine-1-sulfonamide]
2 |  |  |  |  |  |  |  |  | > 500 nM | 30 to 70% | 10 to 50 nM | > 70% | 50 to 500 nM | 30 to 70% | > 500 nM | 30 to 70% | CCCS(=O)(=O)Nc1cccc(-c2nc(C(C)(C)C)sc2-c2ccnc(Nc3ccc(N4CCN(CC5CCN(c6ccc([C@@H]7CCC(=O)NC7=O)cc6)CC5)CC4)cc3)n2)c1F [Compound 58, N-[3-(2-tert-butyl-5-{2-[(4-{4-[(1-{4-[(3S)-2,6-dioxopiperidin-3-yl]phenyl}piperidin-4-yl)methyl]piperazin-1-yl}phenyl)amino]pyrimidin-4-yl}-1,3-thiazol-4-yl)-2-fluorophenyl]propane-1-sulfonamide]
3 | < 10 nM | 30 to 70% | < 10 nM | > 70% | < 10 nM | > 70% | > 500 nM | 30 to 70% |  |  |  |  |  |  |  |  | O=C1CCN(c2ccc(N3CCC(CN4CCN(c5ccc(-n6cc(-c7cc(Cl)cc(NS(=O)(=O)N8CCCC8)c7F)c(-c7ccncc7)n6)cc5F)CC4)CC3)cc2)C(=O)N1 [Compound 361, N-[5-chloro-3-(1-{4-[4-({1-[4-(2,4-dioxo-1,3-diazinan-1-yl)phenyl]piperidin-4-yl}methyl)piperazin-1-yl]-3-fluorophenyl}-3-(pyridin-4-yl)-1H-pyrazol-4-yl)-2-fluorophenyl]pyrrolidine-1-sulfonamide]
4 |  |  |  |  |  |  |  |  | > 500 nM | 30 to 70% | 10 to 50 nM | > 70% | > 500 nM | 30 to 70% | > 500 nM | 30 to 70% | CCCS(=O)(=O)Nc1cccc(-c2cn(C3CCN(C(=O)C4(C)CCN(C(=O)C5CCN(c6ccc(C7CCC(=O)NC7=O)cn6)CC5)CC4)CC3)nc2-c2ccncc2)c1F (racemic) [Compound 8, Rac-N-[3-(1-{1-[1-(1-{5-[(3R)-2,6-dioxopiperidin-3-yl]pyridin-2-yl}piperidine-4-carbonyl)-4-methylpiperidine-4-carbonyl]piperidin-4-yl}-3-(pyridin-4-yl)-1H-pyrazol-4-yl)-2-fluorophenyl]propane-1-sulfonamide]
5 | < 10 nM | > 70% | < 10 nM | > 70% | < 10 nM | > 70% | 10 to 50 nM | > 70% |  |  |  |  |  |  |  |  | CCN(C)S(=O)(=O)Nc1cc(F)cc(-c2cn(-c3ccc(N4CCN(CC5CCN(c6ccc([C@H]7CCC(=O)NC7=O)cn6)CC5)CC4)cc3)nc2-c2ccncc2)c1F [Compound 375, (3R)-3-(6-{4-[(4-{4-[4-(3-{[ethyl(methyl)sulfamoyl]amino}-2,5-difluorophenyl)-3-(pyridin-4-yl)-1H-pyrazol-1-yl]phenyl}piperazin-1-yl)methyl]piperidin-1-yl}pyridin-3-yl)piperidine-2,6-dione]
6 |  |  |  |  |  |  |  |  | > 500 nM | < 30% | < 10 nM | > 70% | > 500 nM | < 30% | > 500 nM | < 30% | CCCS(=O)(=O)Nc1cccc(-c2nc(C(C)(C)C)sc2-c2ccnc(Nc3ccc(N4CCN(C(=O)CC5(O)CCN(c6ccc(NC7CCC(=O)NC7=O)cc6F)CC5)CC4)c(F)c3)n2)c1F (racemic) [Compound 52, Rac-N-{3-[2-tert-butyl-5-(2-{[4-(4-{2-[1-(4-{[(3R)-2,6-dioxopiperidin-3-yl]amino}-2-fluorophenyl)-4-hydroxypiperidin-4-yl]acetyl}piperazin-1-yl)-3-fluorophenyl]amino}pyrimidin-4-yl)-1,3-thiazol-4-yl]-2-fluorophenyl}propane-1-sulfonamide]
7 | < 10 nM | 30 to 70% | < 10 nM | > 70% | < 10 nM | > 70% | < 10 nM | 30 to 70% |  |  |  |  |  |  |  |  | O=C1CCN(c2ccc(N3CCC(CN4CCN(c5ccc(-n6cc(-c7cc(Cl)cc(NS(=O)(=O)N8CC[C@@H](F)C8)c7F)c(-c7ccncc7)n6)cc5)CC4)CC3)nc2)C(=O)N1 [Compound 263, (R)—N-(5-chloro-3-(1-(4-(4-((1-(5-(2,4-dioxotetrahydropyrimidin-1(2H)-yl)pyridin-2-yl)piperidin-4-yl)methyl)piperazin-1-yl)phenyl)-3-(pyridin-4-yl)-1H-pyrazol-4-yl)-2-fluorophenyl)-3-fluoropyrrolidine-1-sulfonamide]
8 | < 10 nM | 30 to 70% | < 10 nM | > 70% | < 10 nM | > 70% | > 500 nM | 30 to 70% |  |  |  |  |  |  |  |  | O=C1CCN(c2ccc(N3CCC(CN4CCN(c5ccc(-n6cc(-c7cc(Cl)cc(NS(=O)(=O)N8CCCC8)c7F)c(-c7ccncc7)n6)cc5)CC4)CC3)cc2)C(=O)N1 [Compound 283, N-[5-chloro-3-(1-{4-[4-({1-[4-(2,4-dioxo-1,3-diazinan-1-yl)phenyl]piperidin-4-yl}methyl)piperazin-1-yl]phenyl}-3-(pyridin-4-yl)-1H-pyrazol-4-yl)-2-fluorophenyl]pyrrolidine-1-sulfonamide]
9 | < 10 nM | 30 to 70% | < 10 nM | > 70% | < 10 nM | > 70% | 10 to 50 nM | > 70% |  |  |  |  |  |  |  |  | CCN(C)S(=O)(=O)Nc1cc(Cl)cc(-c2cn(-c3ccc(N4CCN(CC5CCN(c6ccc([C@H]7CCC(=O)NC7=O)cn6)CC5)CC4)cc3)nc2-c2ccncc2)c1F [Compound 309, (3R)-3-(6-{4-[(4-{4-[4-(5-chloro-3-{[ethyl(methyl)sulfamoyl]amino}-2-fluorophenyl)-3-(pyridin-4-yl)-1H-pyrazol-1-yl]phenyl}piperazin-1-yl)methyl]piperidin-1-yl}pyridin-3-yl)piperidine-2,6-dione]
10 |  |  |  |  |  |  |  |  | < 10 nM | 30 to 70% | 10 to 50 nM | > 70% | 10 to 50 nM | 30 to 70% | 10 to 50 nM | 30 to 70% | CCN(C)S(=O)(=O)Nc1cccc(-c2nc(C(C)(C)C)sc2-c2ccnc(Nc3ccc(N4CCN(CC5CCN(c6ccc([C@@H]7CCC(=O)NC7=O)cc6)CC5)CC4)cn3)n2)c1F [Compound 127, (3S)-3-{4-[4-({4-[6-({4-[2-tert-butyl-4-(3-{[ethyl(methyl)sulfamoyl]amino}-2-fluorophenyl)-1,3-thiazol-5-yl]pyrimidin-2-yl}amino)pyridin-3-yl]piperazin-1-yl}methyl)piperidin-1-yl]phenyl}piperidine-2,6-dione]
11 |  |  |  |  |  |  |  |  | > 500 nM | 30 to 70% | 10 to 50 nM | > 70% | 10 to 50 nM | 30 to 70% | > 500 nM | < 30% | CCCS(=O)(=O)Nc1cccc(-c2cn(-c3ccc(C4CCN(CC5CCN(c6ccc([C@@H]7CCC(=O)NC7=O)cc6)CC5)CC4)cc3)nc2-c2ccncc2)c1F [Compound 15, N-{3-[1-(4-{1-[(1-{4-[(3S)-2,6-dioxopiperidin-3-yl]phenyl}piperidin-4-yl)methyl]piperidin-4-yl}phenyl)-3-(pyridin-4-yl)-1H-pyrazol-4-yl]-2-fluorophenyl}propane-1-sulfonamide]
